This is an account of results in ChEMBL document CHEMBL2424520, “Screening and evaluation of small organic molecules as ClpB inhibitors and potential antimicrobials” (J Med Chem, 2013).

In brackets after ≈: the same amount, converted by molar mass. Activity calls are given as the source filed them. No cut-off for these calls is given here. Bounds are passed on as bounds.

Series [1] can be described thus: Effect on ATPase activity of CLPB (unknown origin) expressed in Escherichia coli MC4100 at 1 to 100 uM by spectrophotometric analysis.
A short description of series [2]: Binding affinity to CLPB (unknown origin) expressed in Escherichia coli MC4100 assessed as change in melting temperature at 100 to 200 uM after 30 mins by DSF analysis in presence of ATPgammaS. In general terms: Differential scanning fluorimetry follows unfolding on heating by fluorescence.
Series [3] can be described thus: Binding affinity to CLPB (unknown origin) expressed in Escherichia coli MC4100 assessed as change in melting temperature at 100 to 200 uM after 30 mins by DSF analysis in presence of ATP.
A short description of series [4]: Inhibition of DNAK/CLPB (unknown origin) assessed as reactivation of malate dehydrogenase aggregates after 2 hrs.
Series [5] can be described thus: Effect on ATPase activity of CLPB (unknown origin) expressed in Escherichia coli MC4100 using alpha-casein as substrate at 1 to 100 uM by spectrophotometric analysis.
A short description of series [6]: Inhibition of DNAK (unknown origin) assessed as reactivation of luciferase aggregates after 2 hrs.
Series [7] in a line: Binding affinity to CLPB (unknown origin) expressed in Escherichia coli MC4100 assessed as change in melting temperature at 100 to 200 uM after 30 mins by DSF analysis in presence of ADP.
Series [8] in a line: Binding affinity to CLPB (unknown origin) expressed in Escherichia coli MC4100 assessed as change in melting temperature at 100 to 200 uM after 30 mins by DSF analysis.
Series [9] can be described thus: Inhibition of DNAK/CLPB (unknown origin) assessed as reactivation of malate dehydrogenase aggregates after 2 hrs in presence of Tween 80.
Series [10] is described as follows: Inhibition of DNAK (unknown origin) assessed as reactivation of luciferase aggregates after 2 hrs in presence of Tween 80.
Series [11] can be described thus: Activation of CLPB (unknown origin) expressed in Escherichia coli MC4100 at 1 to 100 uM by spectrophotometric analysis.
Series [12] in a line: Activation of CLPB (unknown origin) expressed in Escherichia coli MC4100 using alpha-casein as substrate at 1 to 100 uM by spectrophotometric analysis.
The subject of series [13] is Escherichia coli. Put plainly: Antibacterial activity against CLPB-deleted Escherichia coli MC4100 assessed as reduction of CFU count at 300 uM at 37 degC after 24 hrs by two-fold dilution method in presence of paraquat. It counts as functional, organism-based.
Series [14] is described as follows: Binding affinity to CLPB E276A/E678A mutant (unknown origin) expressed in Escherichia coli MC4100 at 100 uM in presence of alpha-casein by spectrofluorimetric analysis.
Series [15] in a line: Inhibition of ATPase activity of CLPB (unknown origin) expressed in Escherichia coli MC4100 using 10 uM alpha-casein as substrate at 1 to 100 uM by spectrophotometric analysis.
The test system of series [16] is Escherichia coli. Put plainly: Antibacterial activity against Escherichia coli BL21(DE3) assessed as growth inhibition at 42 degC after 24 hrs by two-fold dilution method in presence of paraquat. The series is classed as functional.
For series [17], the system named is Escherichia coli. Put plainly: Antibacterial activity against CLPB-deleted Escherichia coli MC4100 assessed as reduction of CFU count at 300 uM at 37 degC after 24 hrs by two-fold dilution method. It counts as functional, organism-based.
Series [18] deals with Escherichia coli. Put plainly: Antibacterial activity against Escherichia coli MC4100 assessed as growth inhibition at 0.1 to 1000 uM at 37 to 47 degC after 24 hrs by two-fold dilution method in presence of paraquat. The series is classed as functional, organism-based.
Series [19] has as its system Escherichia coli. Put plainly: Antibacterial activity against Escherichia coli MC4100 assessed as reduction of CFU count at 300 uM at 42 degC after 24 hrs by two-fold dilution method. The series is classed as functional.
Series [20] can be described thus: Cytotoxicity against human HeLa cells assessed as cell viability at 40 to 100 uM after 72 hrs by tetrazolium reduction assay relative to control. The series is classed as cell-based. The following applies: read-out: Activity.
Series [21] has as its system Escherichia coli. Briefly: Antibacterial activity against Escherichia coli BL21(DE3) assessed as growth inhibition at 0.1 to 1000 uM at 37 to 47 degC after 24 hrs by two-fold dilution method in presence of paraquat. The series is classed as functional.
For series [22], the system named is Escherichia coli. Briefly: Antibacterial activity against CLPB-deleted Escherichia coli MC4100 assessed as growth inhibition at 37 degC after 24 hrs by two-fold dilution method. The series is classed as functional, organism-based.
A short description of series [23]: Inhibition of ATPase activity of CLPB (unknown origin) expressed in Escherichia coli MC4100 using 20 to 100 uM alpha-casein as substrate at 1 to 100 uM by spectrophotometric analysis.
Series [24] deals with Escherichia coli. Briefly: Antibacterial activity against Escherichia coli MC4100 assessed as growth inhibition at 42 degC after 24 hrs by two-fold dilution method in presence of paraquat. The following applies: MC4100, 24 h. It counts as functional.
In series [25] the test system is Escherichia coli. Briefly: Antibacterial activity against Escherichia coli MC4100 assessed as reduction of CFU count at 300 uM at 37 degC after 24 hrs by two-fold dilution method in presence of paraquat. The series is classed as functional.
A short description of series [26]: Binding affinity to CLPB (unknown origin) expressed in Escherichia coli MC4100 up to 400 seconds by surface plasmon resonance analysis. (In general: In SPR one partner is held on a chip, and binding of the other changes the refractive index at the surface.)
For series [27], the system named is Escherichia coli. Put plainly: Antibacterial activity against TolC-deleted Escherichia coli JLS1015 at 37 to 47 degC after 7 hrs by two-fold dilution method. It counts as functional. Conditions: JLS1015, 7 h.
The nature of series [28]: Binding affinity to CLPB E276A/E678A mutant (unknown origin)-alpha-casein complex expressed in Escherichia coli MC4100 at 0.1 to 1000 uM by titrimetric analysis.
Series [29] in a line: Binding affinity to CLPB E276A/E678A mutant (unknown origin) expressed in Escherichia coli MC4100 assessed as change in melting temperature by DSF analysis.
Series [30] can be described thus: Cytotoxicity against CHO cells assessed as cell viability at 40 to 100 uM after 72 hrs by tetrazolium reduction assay relative to control. It counts as cell-based, Cricetulus griseus. The following applies: chinese hamster, read-out: Activity.
The subject of series [31] is Escherichia coli. Briefly: Antibacterial activity against CLPB-deleted Escherichia coli MC4100 assessed as growth inhibition at 0.1 to 1000 uM at 37 to 47 degC after 24 hrs by two-fold dilution method in presence of paraquat. It counts as functional, organism-based.
In series [32] the test system is Escherichia coli. Put plainly: Antibacterial activity against Escherichia coli MC4100 assessed as growth inhibition at 37 degC after 24 hrs by two-fold dilution method. The series is classed as functional, organism-based.

`O=C(Nc1cccc([N+](=O)[O-])c1)c1sc2cccc(Cl)c2c1Cl`: the result in [1] and in series [5] was inactive. Further, the ΔTm in series [2] was 4.2 °C; in series [3], 1.8 °C; in [7], 5.2 °C; in [8] it was 0.8 °C. Also, the half-inhibitory concentration (IC50) was 90 µM in [4] and > 100 µM in series [6].

As to `CC(C)[C@H](C(=O)O)N1C(=O)/C(=C2/C(=O)Nc3ccc(Br)cc32)SC1=S`, the result in [1] and in [5] was inactive. The ΔTm in series [2] came to 19.3 °C; in [3], 22.1 °C; in series [7] it was 19.9 °C; in series [8] it was 24.2 °C. For the same compound, the IC50 in [4] was > 100 µM.

As for `C=CCN1C(=O)C(=C2C(=O)Nc3ccccc32)SC1=S`, the IC50 in series [9], in series [4], in series [6] and in series [10] was > 100 µM throughout. Also, the outcome in series [1] and in [5] was inactive. In addition, the shift in melting temperature (ΔTm) came to 5.4 °C in series [2], 7.9 °C in series [3], 7.6 °C in series [7] and 9 °C in [8].

For the compound `O=C1Nc2ccc([N+](=O)[O-])cc2/C1=C1\SC(=O)N(c2ccc(Cl)cc2)C1=O`, the half-maximal inhibitory concentration (IC50) is 6 µM in series [9], 10 µM in [4], 40 µM in [6] and 60 µM in series [10]. The ΔTm in [2] was 12.3 °C; in [8], > 40 °C. In addition, the result in [11] and in series [12] was Active.

Take `O=C(Nc1ccccc1)OCCSC(=O)Nc1ccc(Cl)c(Cl)c1`: the result (in the series on Escherichia coli [13]; in the series with Escherichia coli [17]; in [28]) was inactive. Moreover, in series [14], the outcome was Active. Also, the 50% inhibitory concentration (IC50) in [9] is 15 µM; in [4], 20 µM; in series [6], > 100 µM; in series [10], > 100 µM. Further, the inhibition entry in series [15] is “Active”. Besides, the MIC in the series on Escherichia coli [16] was 60 µM; in the series on Escherichia coli [24] it was 60 µM; in the series with Escherichia coli [27], 5 µM (≈ 1.93 µg/mL). For the same compound, the thermal shift (ΔTm) in series [2] worked out at 2 °C; in series [3], 0.8 °C; in [7], 0.8 °C; in series [8], 1.5 °C. In addition, the “growth inhibition (GI)” value in the series on Escherichia coli [18], with Escherichia coli [21], in the series on Escherichia coli [22] and in the series on Escherichia coli [32] was “Active” throughout. The log10cfu with Escherichia coli [19] and in the series on Escherichia coli [25] was 2 throughout. Also, the viability at 72 h, up to 100 µM in series [20] and in series [30] was 50% in each case. In series [23], the inhibition result was “inactive”. The values for the Kd in [26] and in series [29] were 19 µM and 23 µM, respectively. Also, the “growth inhibition (GI)” value in the series on Escherichia coli [31] is “inactive”.

Turning to `Cc1c(Cl)c([N+](=O)[O-])nn1CC(=O)Nc1cc(Oc2ccc(Cl)cc2Cl)cc([N+](=O)[O-])c1`, the outcome in series [1] and in [5] was inactive. In addition, the ΔTm in series [3] is 2 °C; in series [7], 0.7 °C; in [8] it was 14.3 °C. The IC50 in series [4] and in series [6] was > 100 µM throughout.

Turning to `C(=C\C=C\Nc1ccccc1)/C=C/Nc1ccccc1`, the ΔTm in series [2] came to 13.3 °C; in series [3], 11.9 °C; in [7], 12.3 °C; in series [8], 17.5 °C. The figures for the IC50 in [4] and in series [6] were > 100 µM and 100 µM, respectively. The outcome in series [11] and in series [12] was Active.

`COCCCN1C(=O)C(=C2C(=O)Nc3ccc(Br)cc32)SC1=S`: the result in series [1] and in series [5] was inactive. The ΔTm in [2] is 14.3 °C; in series [3], 13.1 °C; in series [7] it was 9.4 °C; in [8], 8.4 °C. In addition, in [4], the concentration for half-maximal inhibition (IC50) is > 100 µM.

As for `O=C1Nc2ccc(Br)cc2/C1=C1/SC(=O)N(c2ccccc2)C1=O`, the IC50 came to 15 µM in [9], 30 µM in [4], 85 µM in series [6] and 50 µM in series [10]. The thermal shift (ΔTm) in [2] is 14.6 °C; in series [3], -0.2 °C; in [7], -0.7 °C; in [8], 18.1 °C. Besides, the outcome in [11] and in series [12] was Active.

With `COc1cc(/C=C2/C(=O)NN(c3ccc(Cl)cc3)C2=O)ccc1OCc1ccc(F)cc1`, the IC50 is 11 µM in series [9], 7.5 µM in series [4], > 100 µM in series [6] and > 100 µM in series [10]. Besides, the shift in melting temperature (ΔTm) came out at 7.1 °C in series [2], 1.2 °C in series [3], 0.7 °C in series [7] and 1 °C in [8]. Also, the outcome in series [11] and in series [12] was Active.

Broadly, the ΔTm is the shift of the melting midpoint relative to a reference. As a reminder, the IC50 is the concentration needed to halve the response being measured. As usually defined, the MIC is the lowest concentration found to suppress growth. Broadly, the Kd is the concentration at which binding is half-saturated.
